Test results: ChEMBL document CHEMBL1122420, “Parasympatholytic (anticholinergic) esters of the isomeric 2-tropanols. 2. Non-glycolates” (J Med Chem, 1983)

Tested on: Mus musculus
Assay: Induction of mydriasis in mice following s.c. administration.
Format: functional
Conditions: sc

**Q.** For `CN1[C@@H]2C[C@@H](OC(=O)[C@H](CO)c3ccccc3)C[C@H]1[C@@H]1O[C@@H]12` [SCOPOLAMINE], which ED50 is on record?
**A.** Its ED50 is 0.012 mg/kg.

**Q.** For `CCCC(C(=O)O[C@@H]1CCC2CCC1N2C)(c1ccccc1)c1ccccc1` (single isomer, unassigned; (+)), which ED50 is on record?
**A.** The ED50 was > 10 mg/kg.

**Q.** Which ED50 does the source give for `CN1C2CCC1[C@H](OC(=O)CC(O)(c1ccccc1)c1ccccc1)CC2` (single isomer, unassigned; (+)) here?
**A.** Its ED50 is > 10 mg/kg.

**Q.** With `COc1cc(C(=O)O[C@@H]2CCC3CCC2N3C)cc(OC)c1OC` (single isomer, unassigned; (+)) as the compound, how does the ED50 read?
**A.** Its ED50 is 32 mg/kg.

**Q.** For `CN1C2CCC1[C@H](OC(=O)N1c3ccccc3Sc3cccnc31)CC2` (single isomer, unassigned; (+)), which ED50 is on record?
**A.** The ED50 was 5.6 mg/kg.

**Q.** With `CN1C2CCC1[C@H](OC(=O)C(Cl)(c1ccccc1)c1ccccc1)CC2.Cl` (single isomer, unassigned; (+)) as the compound, how does the ED50 read?
**A.** Its ED50 is 0.03 mg/kg.

**Q.** For `CN1C2CCC1[C@H](OC(=O)C(OCc1ccccc1)(c1ccccc1)c1ccccc1)CC2.Cl` (single isomer, unassigned; (+)), which ED50 is on record?
**A.** Its ED50 is 5.6 mg/kg.

**Q.** For `CCCOC(C(=O)O[C@@H]1CCC2CCC1N2C)(c1ccccc1)c1ccccc1` (single isomer, unassigned; (+)), which ED50 is on record?
**A.** Its ED50 is 0.94 mg/kg.

**Q.** With `CN1C2CCC1[C@H](OC(=O)C(CO)c1ccccc1)CC2` (single isomer, unassigned; (+)) as the compound, how does the ED50 read?
**A.** The ED50 was 0.1 mg/kg.

**Q.** For `CN1C2CCC1[C@H](OC(=O)C(F)(c1ccccc1)c1ccccc1)CC2` (single isomer, unassigned; (+)), which ED50 is on record?
**A.** The ED50 was 0.25 mg/kg.

**Q.** For `CN1C2CCC1[C@H](OC(=O)C1c3ccccc3CCc3ccccc31)CC2` (single isomer, unassigned; (+)), which ED50 is on record?
**A.** Its ED50 is 5.6 mg/kg.

**Q.** With `CN1C2CCC1[C@@H](OC(=O)C1c3ccccc3CCc3ccccc31)CC2` (single isomer, unassigned; (-)) as the compound, how does the ED50 read?
**A.** Its ED50 is > 10 mg/kg.

**Q.** Which ED50 does the source give for `CN1[C@@H]2CC[C@H]1C[C@@H](OC(=O)C(CO)c1ccccc1)C2` (stereo not given in full) [ATROPINE] here?
**A.** Its ED50 is 0.061 mg/kg.

**Q.** With `COc1cc(C(=O)O[C@H]2CCC3CCC2N3C)cc(OC)c1OC` (single isomer, unassigned; (-)) as the compound, how does the ED50 read?
**A.** Its ED50 is > 10 mg/kg.

**Q.** Which ED50 does the source give for `CN1C2CCC1[C@H](OC(=O)c1cc(=O)c3ccccc3o1)CC2` (single isomer, unassigned; (+)) here?
**A.** The ED50 was > 10 mg/kg.

**Q.** With `CN1C2CCC1[C@H](OC(=O)C13CC4CC(CC(C4)C1)C3)CC2` (single isomer, unassigned; (+)) as the compound, how does the ED50 read?
**A.** Its ED50 is > 10 mg/kg.

Tested on: not listed separately
Assay: LD50 in mice following i.v. administration.
Format: organism-based
Conditions: mouse, in vivo, iv

**Q.** With `CCCC(C(=O)O[C@@H]1CCC2CCC1N2C)(c1ccccc1)c1ccccc1` (single isomer, unassigned; (+)) as the compound, how does the LD50 read?
**A.** Its LD50 is 18 mg/kg.

**Q.** With `CN1C2CCC1[C@H](OC(=O)CC(O)(c1ccccc1)c1ccccc1)CC2` (single isomer, unassigned; (+)) as the compound, how does the LD50 read?
**A.** The LD50 was 18 mg/kg.

**Q.** Which LD50 does the source give for `COc1cc(C(=O)O[C@@H]2CCC3CCC2N3C)cc(OC)c1OC` (single isomer, unassigned; (+)) here?
**A.** The LD50 was 56 mg/kg.

**Q.** With `CN1C2CCC1[C@H](OC(=O)N1c3ccccc3Sc3cccnc31)CC2` (single isomer, unassigned; (+)) as the compound, how does the LD50 read?
**A.** Its LD50 is 32 mg/kg.

**Q.** For `CN1C2CCC1[C@H](OC(=O)C(Cl)(c1ccccc1)c1ccccc1)CC2.Cl` (single isomer, unassigned; (+)), which LD50 is on record?
**A.** Its LD50 is 22 mg/kg.

**Q.** Which LD50 does the source give for `CN1C2CCC1[C@H](OC(=O)C(OCc1ccccc1)(c1ccccc1)c1ccccc1)CC2.Cl` (single isomer, unassigned; (+)) here?
**A.** The LD50 was 56 mg/kg.

**Q.** Which LD50 does the source give for `CCCOC(C(=O)O[C@@H]1CCC2CCC1N2C)(c1ccccc1)c1ccccc1` (single isomer, unassigned; (+)) here?
**A.** The LD50 was 22 mg/kg.

**Q.** For `CN1C2CCC1[C@H](OC(=O)C(CO)c1ccccc1)CC2` (single isomer, unassigned; (+)), which LD50 is on record?
**A.** The LD50 was 50 mg/kg.

**Q.** For `CN1C2CCC1[C@H](OC(=O)C(F)(c1ccccc1)c1ccccc1)CC2` (single isomer, unassigned; (+)), which LD50 is on record?
**A.** The LD50 was 36 mg/kg.

**Q.** With `CN1C2CCC1[C@H](OC(=O)C1c3ccccc3CCc3ccccc31)CC2` (single isomer, unassigned; (+)) as the compound, how does the LD50 read?
**A.** Its LD50 is 32 mg/kg.

**Q.** For `CN1C2CCC1[C@@H](OC(=O)C1c3ccccc3CCc3ccccc31)CC2` (single isomer, unassigned; (-)), which LD50 is on record?
**A.** Its LD50 is 18 mg/kg.

**Q.** With `COc1cc(C(=O)O[C@H]2CCC3CCC2N3C)cc(OC)c1OC` (single isomer, unassigned; (-)) as the compound, how does the LD50 read?
**A.** Its LD50 is 18 mg/kg.

**Q.** With `CN1C2CCC1[C@H](OC(=O)c1cc(=O)c3ccccc3o1)CC2` (single isomer, unassigned; (+)) as the compound, how does the LD50 read?
**A.** Its LD50 is 100 mg/kg.

**Q.** For `CN1C2CCC1[C@H](OC(=O)C13CC4CC(CC(C4)C1)C3)CC2` (single isomer, unassigned; (+)), which LD50 is on record?
**A.** The LD50 was 32 mg/kg.
